Source: PMC11435058, “Synthesis of New Thiazole-Privileged Chalcones as Tubulin Polymerization Inhibitors with Potential Anticancer Activities” (Pharmaceuticals, 2024)

How the values were obtained:
[1] = system: RPMI-8226; assay: NCI-60 anticancer screen (SRB; single dose and five doses); details: Homo sapiens; for activity at 10 µM: RPMI-8226, 48 h, read-out: Growth Percentage
[2] = system: SR; assay: as above; details: Homo sapiens; for activity at 10 µM: 48 h, read-out: Growth Percentage
[3] = system: A549/ATCC; assay: as above; details: Homo sapiens; for activity at 10 µM: A549, 48 h, read-out: Growth Percentage
[4] = system: NCI-H460; assay: as above; details: Homo sapiens; for activity at 10 µM: NCI-H460, 48 h, read-out: Growth Percentage
[5] = system: KM12; assay: as above; details: Homo sapiens; for activity at 10 µM: KM12, 48 h, read-out: Growth Percentage
[6] = system: LOX IMVI; assay: as above; details: Homo sapiens; for activity at 10 µM: 48 h, read-out: Growth Percentage
[7] = system: OVCAR-5; assay: as above; details: Homo sapiens; for activity at 10 µM: OVCAR-5, 48 h, read-out: Growth Percentage
[8] = system: NCI/ADR-RES; assay: as above; details: Homo sapiens; for activity at 10 µM: 48 h, read-out: Growth Percentage

Structure (SMILES): COc1cccc(/C=C/C(=O)c2sc(=S)[nH]c2C)c1OC [2m, (E)-3-(2,3-Dimethoxyphenyl)-1-(4-Methyl-2-Thioxo-2,3-Dihydrothiazol-5-yl)Prop-2-En-1-One]
- melting point: 239 to 240 °C
- activity at 10 µM [1]: 9.09%
- activity at 10 µM [2]: 5.15%
- activity at 10 µM [3]: 43.1%
- activity at 10 µM [4]: 40.1%
- activity at 10 µM [5]: 25.3%
- activity at 10 µM [6]: 21.7%
- activity at 10 µM [7]: 81.7%
- activity at 10 µM [8]: 30.9%

Structure (SMILES): Cc1ccc(/C=C/C(=O)c2sc(=S)[nH]c2C)cc1 [2j, (E)-1-(4-Methyl-2-Thioxo-2,3-Dihydrothiazol-5-yl)-3-(p-Tolyl)Prop-2-En-1-One]
- melting point: 241 to 243 °C
- activity at 10 µM [1]: 18.9%
- activity at 10 µM [2]: 45.5%
- activity at 10 µM [3]: 74.3%
- activity at 10 µM [4]: 53.1%
- activity at 10 µM [5]: 29.8%
- activity at 10 µM [6]: 31.2%
- activity at 10 µM [7]: 138%
- activity at 10 µM [8]: 31%

Structure (SMILES): Cc1[nH]c(=S)sc1C(=O)/C=C/c1cccc(F)c1 [2b, (E)-3-(3-Fluorophenyl)-1-(4-Methyl-2-Thioxo-2,3-Dihydrothiazol-5-yl)Prop-2-En-1-One]
- melting point: 234 to 236 °C
- activity at 10 µM [1]: 15.2%
- activity at 10 µM [2]: 6.82%
- activity at 10 µM [3]: 76.4%
- activity at 10 µM [4]: 43.2%
- activity at 10 µM [5]: 11.9%
- activity at 10 µM [6]: 13.8%
- activity at 10 µM [7]: 88.2%
- activity at 10 µM [8]: 10.8%

Structure (SMILES): Cc1[nH]c(=S)sc1C(=O)/C=C/c1ccc(Cl)cc1 [2f, (E)-3-(4-Chlorophenyl)-1-(4-Methyl-2-Thioxo-2,3-Dihydrothiazol-5-yl)Prop-2-En-1-One]
- GI50 ([1]; RPMI-8226): 2.4 µM
- activity at 10 µM [1]: 13.8%
- IC50 ([1]; RPMI-8226, RPMI-8226, five doses): 2.4 µM
- IC50 ([1]; RPMI-8226, five-dose, Leukemia RPMI-8226): 4.68 µM
- CC50 ([1]; RPMI-8226, read-out: LC50): > 100 µM
- IC (TGI) ([1]; RPMI-8226, read-out: TGI): 8.32 µM
- GI50 [2]: 3.55 µM
- IC50 [2]: 5.37 µM
- CC50 ([2]; read-out: LC50): > 100 µM
- IC (TGI) ([2]; read-out: TGI): 56.2 µM
- GI50 ([3]; A549): 10.7 µM
- IC50 ([3]; A549): 16.2 µM
- activity at 10 µM [3]: 61.1%
- CC50 ([3]; A549, read-out: LC50): 52.5 µM
- IC (TGI) ([3]; A549, read-out: TGI): 24 µM
- GI50 ([4]; NCI-H460): 12 µM
- IC50 ([4]; NCI-H460): 19.1 µM
- activity at 10 µM [4]: 82.6%
- CC50 ([4]; NCI-H460, read-out: LC50): 69.2 µM
- IC (TGI) ([4]; NCI-H460, read-out: TGI): 28.8 µM
- GI50 ([5]; KM12): 4.17 µM
- IC50 ([5]; KM12): 8.13 µM
- activity at 10 µM [5]: 6.77%
- CC50 ([5]; KM12, read-out: LC50): 45.7 µM
- IC (TGI) ([5]; KM12, read-out: TGI): 16.6 µM
- GI50 [6]: 3.39 µM
- IC50 [6]: 4.47 µM
- activity at 10 µM [6]: -48.1%
- CC50 ([6]; read-out: LC50): 38 µM
- IC (TGI) ([6]; read-out: TGI): 12 µM
- GI50 ([7]; OVCAR-5): 17.8 µM
- IC50 ([7]; OVCAR-5): 32.4 µM
- activity at 10 µM [7]: 50.8%
- CC50 ([7]; OVCAR-5, read-out: LC50): 60.3 µM
- IC (TGI) ([7]; OVCAR-5, read-out: TGI): 33.1 µM
- GI50 [8]: 3.72 µM
- IC50 [8]: 7.08 µM
- activity at 10 µM [8]: -8.39%
- CC50 ([8]; read-out: LC50): 77.6 µM
- IC (TGI) ([8]; read-out: TGI): 17.4 µM

Structure (SMILES): Cc1[nH]c(=S)sc1C(=O)/C=C/c1ccccc1Cl [2d, (E)-3-(2-Chlorophenyl)-1-(4-Methyl-2-Thioxo-2,3-Dihydrothiazol-5-yl)Prop-2-En-1-One]
- melting point: 240 to 242 °C
- activity at 10 µM [1]: 28.6%
- activity at 10 µM [2]: 14.1%
- activity at 10 µM [3]: 87.6%
- activity at 10 µM [4]: 82.2%
- activity at 10 µM [5]: 63.8%
- activity at 10 µM [6]: 57.5%
- activity at 10 µM [7]: 116%
- activity at 10 µM [8]: 88.8%

Structure (SMILES): Cc1[nH]c(=S)sc1C(=O)/C=C/c1ccccc1 [2a, (E)-1-(4-Methyl-2-Thioxo-2,3-Dihydrothiazol-5-yl)-3-Phenylprop-2-En-1-One]
- melting point: 245 to 247 °C
- activity at 10 µM [1]: 14.1%
- activity at 10 µM [2]: 32.4%
- activity at 10 µM [3]: 82.3%
- activity at 10 µM [4]: 56.7%
- activity at 10 µM [5]: 29%
- activity at 10 µM [6]: 31.1%
- activity at 10 µM [7]: 129%
- activity at 10 µM [8]: 64.8%
